The source made the active and inactive calls. No cut-off for these calls is given here.
Tests used:
[1] = Toxicity in dog assessed as congestion in lymphoid organs measured for 28 days; design: species or system Canis lupus familiaris; settings: in vivo, 672 h, time 28 day
[2] = Effect on cleaved PARP level in human NCI-H889 cells assessed as fold change at 100 nM measured after 10 days by Western blot analysis (reference value: 1.00); format: functional; settings: time 10 day
[3] = Effect on cleaved PARP level in human COLO-668 cells assessed as fold change at 10 nM measured after 7 days by Western blot analysis (reference value: 1.00); format: functional; settings: time 7 day
[4] = Effect on cleaved PARP level in human COLO-668 cells assessed as relative expression at 100 nM measured after 10 days by Western blot analysis (reference value: 1.07); format: functional; settings: time 10 day
[5] = Effect on cleaved PARP level in human NCI-H69 cells assessed as fold change at 10 nM measured after 10 days by Western blot analysis (reference value: 1.00); format: functional; settings: time 10 day
[6] = Effect on cleaved PARP level in human NCI-H889 cells assessed as relative expression at 10 nM measured after 14 days by Western blot analysis (reference value: 0.94); format: functional; settings: time 14 day
[7] = Effect on cleaved PARP level in human NCI-H69 cells assessed as relative expression at 1000 nM measured after 14 days by Western blot analysis (reference value: 0.03); format: functional; settings: time 14 day
[8] = Effect on cleaved PARP level in human NCI-H524 cells assessed as relative expression at 1000 nM measured after 7 days by Western blot analysis (reference value: 0.63); format: functional; settings: time 7 day
[9] = Effect on cleaved PARP level in human NCI-H524 cells assessed as relative expression at 10 nM measured after 14 days by Western blot analysis (reference value: […]); format: functional; settings: time 14 day
NCI-H1417 [10] = test: Effect on caspase-3 level in human NCI-H1417 cells upto 1000 nM measured after 10 days by Western blot analysis; format: functional, cell-based; settings: time 10.0 day
[11] = Effect on cleaved PARP level in human NCI-H1417 cells assessed as relative expression at 100 nM measured after 10 days by Western blot analysis (reference value: 0.19); format: functional; settings: time 10 day
NCI-H1417 [12] = test: Cell growth inhibition of human NCI-H1417 cells measured upto 10 days; format: functional, cell-based; settings: time <= 10.0 day
[13] = Dose normalized AUC (0 to last) in mouse blood at 5 mg/kg, po by HPLC/MS/MS analysis; format: ADME, organism-based; settings: in vivo
[14] = Effect on cleaved PARP level in human NCI-H69 cells assessed as fold change at 100 nM measured after 7 days by Western blot analysis (reference value: 1.00); format: functional; settings: time 7 day
[15] = Toxicity in rat assessed as suppression of platelet in bone marrow measured for 28 days; format: cell-based; settings: 672 h, time 28 day
[16] = Effect on cleaved PARP level in human NCI-H2171 cells assessed as relative expression at 10 nM measured after 10 days by Western blot analysis (reference value: 0.02); format: functional; settings: time 10 day
[17] = Toxicity in mouse xenografted with human NCI-H526 cells assessed as drug tolerance at 1.5 mg/kg, po administered daily measured for 30 days; format: organism-based; settings: in vivo, 720 h, time 30 day
[18] = Effect on cleaved PARP level in human NCI-H146 cells assessed as relative expression at 100 nM measured after 10 days by Western blot analysis (reference value: 0.27); format: functional; settings: time 10 day
NCI-H1417 [19] = test: Antitumor activity against human NCI-H1417 cells xenografted in nude mouse assessed as mean tumor volume at 1.5 mg/kg, po administered daily measured twice weekly (reference value: 2262 +/- 299 mm3); format: functional
[20] = Effect on cleaved PARP level in human NCI-H510 cells assessed as relative expression at 10 nM measured after 7 days by Western blot analysis (reference value: 0.24); format: functional, NCI-H510A; settings: time 7 day
[21] = Effect on cleaved PARP level in human NCI-H526 cells assessed as relative expression at 1000 nM measured after 7 days by Western blot analysis (reference value: 0.57); format: functional; settings: time 7 day
[22] = Dose normalized AUC (0 to infinity) in mouse at 5.5 mg/kg, ip by HPLC/MS/MS analysis; format: ADME, organism-based; settings: in vivo
[23] = target: 3',5'-cyclic-AMP phosphodiesterase 4B (Homo sapiens, UniProt Q07343); test: Inhibition of PDE4B (unknown origin)
Chain of 3',5'-cyclic-AMP phosphodiesterase 4B (Q07343 whole entry): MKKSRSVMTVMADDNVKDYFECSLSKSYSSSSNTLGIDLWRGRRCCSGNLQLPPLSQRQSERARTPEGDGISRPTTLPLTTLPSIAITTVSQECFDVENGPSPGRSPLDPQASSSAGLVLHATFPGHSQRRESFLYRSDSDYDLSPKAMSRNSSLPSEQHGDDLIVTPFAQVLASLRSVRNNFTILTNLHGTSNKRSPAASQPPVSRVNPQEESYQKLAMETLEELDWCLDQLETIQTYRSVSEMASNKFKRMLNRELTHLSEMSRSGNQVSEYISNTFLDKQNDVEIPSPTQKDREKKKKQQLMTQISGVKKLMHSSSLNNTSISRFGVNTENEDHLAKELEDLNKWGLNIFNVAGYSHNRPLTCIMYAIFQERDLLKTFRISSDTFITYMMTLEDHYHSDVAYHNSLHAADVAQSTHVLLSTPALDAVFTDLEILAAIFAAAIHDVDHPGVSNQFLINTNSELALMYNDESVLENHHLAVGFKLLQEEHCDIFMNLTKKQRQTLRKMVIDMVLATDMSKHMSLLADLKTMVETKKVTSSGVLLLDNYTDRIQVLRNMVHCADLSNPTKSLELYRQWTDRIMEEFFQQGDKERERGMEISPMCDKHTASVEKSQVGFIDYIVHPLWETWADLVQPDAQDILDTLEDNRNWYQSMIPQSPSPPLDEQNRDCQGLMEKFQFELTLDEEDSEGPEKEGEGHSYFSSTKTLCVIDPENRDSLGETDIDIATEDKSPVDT

For `O=C(O)c1ccc(CN2CCC(CN[C@@H]3C[C@H]3c3ccccc3)CC2)cc1` [GSK2879552], the Activity [1] was “Toxic”, the “fold change (FC)” value [2] was 2.25 and the “fold change (FC)” value [3] was 0.74. For the same compound, the Activity [4] was 0.74, the “fold change (FC)” value [5] was 1.74 and the Activity [6] was 1.73. It also gave an Activity [7] of 0.17, an Activity [8] of 1.12 and an Activity [9] of 1.2. The Activity (NCI-H1417 [10]) was “inactive”, the Activity [11] was 0.4 and the “growth inhibition (GI)” value (NCI-H1417 [12]) was “Dose-Dependent Effect”. For the same compound, the AUClast/dose [13] was 171 ng·h/mL/mg/kg, the “fold change (FC)” value [14] was 1.32 and the Activity [15] was “Toxic”. The Activity [16] was 0.02, the Activity [17] was “Non-Toxic” and the Activity [18] was 0.25. It also gave an Activity (NCI-H1417 [19]) of 546 mm3, an Activity [20] of 0.3 and an Activity [21] of 0.74.
Work on `c1ccc([C@@H]2C[C@H]2NC2CCNCC2)cc1` yielded an AUC/dose [22] of 172 kg·ng·h/mL/mg and an IC50 [23] greater than 100 µM.

Source: ChEMBL document CHEMBL5705903, “A DNA Hypomethylation Signature Predicts Antitumor Activity of LSD1 Inhibitors in SCLC” (Cancer Cell, 2015)
